This is an account of results in patent US9920069B2, “Compounds for treatment of fluoroquinolone-resistant bacteria” (The Board of Trustees of the University of Illinois, priority 2014, dated 2018).

For one series, the system named is Herring Sperm DNA. It is filed as binding. To be noted: 30 min, pH 7.5. As to the method: FIG. 12. In vitro toxicity. A) Hemolysis assay. Human red blood cells were co-incubated with compound. After incubation for 2 h at 37° C., the supernatant was analyzed for hemolysis. Each compound was tested either at 160 μg mL^−1 or at the highest concentration which its solubility allowed. Concentrations (μg mL^−1) are indicated in parenthesis. The negative control is DMSO and the positive control is water. Data shown is from three independent replicates±SEM. B) Ethidium bromide (EtBr) intercalation assay. Compounds were incubated with Herring Sperm DNA, ethidium bromide, and compound of interest for 30 minutes. The solutions were then analyzed for ethidium bromide fluorescence. Any decrease in percentage fluorescence is indicative of compound intercalation. Doxorubicin (DOX) was used as a positive control.
These assays were performed as previously described (Bair et al. J. Am. Chem. Soc. 132, 5469-5478, (2010)). The ability of DNM-2 to intercalate into DNA was measured by an ethidium bromide displacement assay. Herring Sperm DNA (34 μg/mL final) was premixed with buffer containing ethidium bromide (50 mM Tris base, 100 mM NaCl, 1 mM EDTA, 5 μM EtBr, pH=7.5). 95 μL of this solution was added to a 96 well plate containing 5 μL of DMSO solutions of compounds. […] Fluorescence was then read on a Gemini microplate reader (Molecular Devices, excitation=545 nm, emission=595 nm).

Another series can be described thus: physchem. To be noted: pH 7.4 PBS; three replicates ± SEM. As to the method: Enough PBS was added to make a 1 mg/mL solution. Compounds were then assessed by LC-MS and compared to a calibration curve to determine the solubility. […] Data shown is from three independent replicates±SEM. […] Between DMSO additions, the vial was vortexed and sonicated.
The compound was vortexed for ˜30 seconds before being placed into a bath sonicator (Cole Parmer, ultrasonic cleaner) for 1 h. […] The tubes were vortexed again for 30 s before being centrifuged at maximum speed (13,000×g) for 10 minutes. The supernatant was then filtered through a 0.22 μm syringe filter (Millipore Millex MP). […] Three independent replicates of each compound were performed. A calibration curve for each compound was generated from 1-400 μM by dissolving the compound in DMSO and making dilutions of the stock in DMSO. […] The concentration of the samples was calculated based on the calibration curves.

The test system of series [1] is MRSA clinical isolate SAU.447. Kind of series: MIC, microdilution broth. It is filed as cell-based, S. aureus. Particulars: Staphylococcus aureus. As to the method:
(§1) Susceptibility testing was performed in triplicate using the microdilution broth method as outlined by the Clinical and Laboratory Standards Institute CLSI^52. MH broth was used.

In series [2] the test system is MRSA clinical isolate SAU.3026. The series can be described thus: MIC, microdilution broth. To be noted: Staphylococcus aureus, MRSA, read-out: MIC. It is filed as cell-based, S. aureus. As to the method: as §1
Series [3] has as its system MRSA clinical isolate SAU.3021. The series can be described thus: MIC, microdilution broth. It is filed as cell-based, S. aureus. To be noted: Staphylococcus aureus, MRSA, read-out: MIC. As to the method: as §1
Series [4] is described as follows: In vivo toxicity assessment, 10 days. Further details: species or system BALB/c mice. Particulars: 50 mg kg^−1 oral once-a-day 10 days; in words. As to the method: Toxicity was assessed as previously described^56. Specifically, heparinized whole blood was collected for assessment of total white blood cells, neutrophils, lymphocytes, hematocrit, platelets, creatinine, blood urea, nitrogen, albumin, alanine aminotransferase, alkaline phosphatase, and total bilirubin. Mice were euthanized by overdosing with Ketamine/Xylazine, and heart, lung, kidney, liver, spleen, gastrointestinal tract and brain were collected for histopathology. Tissue samples were fixed 24 hours in 10% neutral buffered formalin, processed, and paraffin embedded, sectioned (5 μm thickness) and stained with hematoxylin and eosin. All slides were systematically evaluated by a single board certified veterinary anatomic pathologist (SL) for evidence of acute or chronic inflammation and toxicity. All lesions were characterized, recorded, and scored for severity (minimal=1, mild=2, moderate=3, and severe=4).

Series [5] has as its system VRE clinical isolate S234. Kind of series: organism not typed. Particulars: read-out: MIC. It is filed as cell-based, E. faecalis.
Another series deals with A. baumannii KB349. The series can be described thus: MIC, microdilution broth. It is filed as cell-based. Particulars: Acinetobacter baumannii. As to the method:
(§2) E. coli MG1655 and the ΔAcrB strain were obtained from Prof. Cari Vanderpool at UIUC.
as §1

Another series concerns A. baumannii KB304. The series can be described thus: MIC, microdilution broth. It is filed as cell-based. Particulars: Acinetobacter baumannii. As to the method:
as §2, §1

For series [6], the system named is VRE clinical isolate S557. The series can be described thus: organism not typed. It is filed as cell-based, E. faecium. Particulars: read-out: MIC.
The subject of a further series is E. coli ATCC 25922. The series can be described thus: microbe, parasite or virus in culture. It is filed as cell-based. To be noted: Escherichia coli, ATCC25922, gyrA none, parC none. As to the method:
as §2, §1

In another series the test system is P. aeruginosa PAO1. The series can be described thus: microbe, parasite or virus in culture. It is filed as cell-based. To be noted: Pseudomonas aeruginosa, gyrA none, parC none. As to the method:
as §2, §1

The next series has as its system A. baumannii ATCC 19606. Kind of series: microbe, parasite or virus in culture. It is filed as cell-based. To be noted: Acinetobacter baumannii, ATCC19606, gyrA none, parC none. As to the method:
as §2, §1

The subject of series [7] is S. aureus ATCC 29213 derived strains. Kind of series: Resistant mutant generation (resistance frequency). To be noted: development of DNM resistance in high level CIP resistant strains.
Method: Agar plates (15 cm) were prepared containing MH broth and antibacterial compounds at concentrations detailed in the FIG. 10. 40 mL of an overnight bacterial culture was centrifuged at 3000×g for 10 min and resuspended in 0.4 mL of sterile PBS. Plates were inoculated with 100 μL of bacteria in PBS by spreading with beads. […] To determine the number of viable colonies spread onto each plate, dilutions of the overnight culture in sterile PBS were spread onto nonselective MH agar plates and plates were incubated overnight at 37° C. before counting colonies.
Series [8] deals with VRE with the S83R mutation (GyrA). The series can be described thus: microbe, parasite or virus in culture. It is filed as cell-based. To be noted: Enterococcus.
Series [9] deals with normal (i.e. non-cancerous) cell lines. Particulars: cited from earlier work.
The subject of series [10] is VRE harboring the S83I mutation (GyrA). The series can be described thus: microbe, parasite or virus in culture. It is filed as cell-based. Particulars: Enterococcus.

≈ marks a conversion by molar mass, not a printed value.

`CCn1c(=O)cc(C)c2cc3c(C)cc(=O)n4c3c(c21)OC4` [DNM-2]: the “concentration without significant DNA intercalation” value in the series with Herring Sperm DNA is greater than 30 µM. In addition, the “Solubility in pH 7.4 PBS” value in the series “physchem” stood at 121 μM. The MIC was 0.125 µg/mL (≈ 0.422 µM) in series [1]; 0.125 µg/mL (≈ 0.422 µM) in series [2]; 0.063 µg/mL (≈ 0.213 µM) in series [3]; 0.25 µg/mL (≈ 0.844 µM) in [5]; greater than 24 µg/mL with A. baumannii KB349; greater than 24 µg/mL against A. baumannii KB304. For the same molecule, the MIC in [6] is 0.25 µg/mL (≈ 0.844 µM); against E. coli ATCC 25922, greater than 24 µg/mL; against P. aeruginosa PAO1, greater than 24 µg/mL; with A. baumannii ATCC 19606 it was greater than 24 µg/mL. The “hematological and non-hematological toxicity” value in series [4] is “No clinically significant evidence for myelosuppression, renal injury, or hepatic toxicity”.
Consider `Cc1cc(=O)n(C)c2c3c4c(cc12)c(C)cc(=O)n4CO3` [DNM, deoxynybomycin], for which the resistance frequency in series [7] is given as 1×10^−10 to 7×10^−10. The “Solubility in pH 7.4 PBS” value in the series “physchem” was found to be 9 μM. The MIC is 0.063 µg/mL (≈ 0.223 µM) in [1]; 0.125 µg/mL (≈ 0.443 µM) in series [2]; 0.031 µg/mL (≈ 0.11 µM) in series [3]; no less than 1 µg/mL in series [8]; greater than 4 µg/mL in the series on A. baumannii KB349; greater than 4 µg/mL against A. baumannii KB304. The MIC in [10] is 0.125 to 1 µg/mL (≈ 0.443 to 3.54 µM); in the series on E. coli ATCC 25922, greater than 4 µg/mL; in the series on P. aeruginosa PAO1, greater than 4 µg/mL; in the series on A. baumannii ATCC 19606, greater than 4 µg/mL. The “toxicity to normal cell lines” value in series [9] is on record as “non-toxic”.
